Reference: article PMC9412534, “Diindolylmethane Derivatives: New Selective Blockers for T-Type Calcium Channels” (Membranes, 2022)
Like-named read-outs stand apart in the source and are kept apart here.

Key:
CaV3.3 = CaV3.3 (Homo sapiens, UniProt Q9P0X4); experiment: T-type calcium channel window current FLIPR assay, CaV3.3; format: cell-based
Experimental: The human embryonic kidney 293 (HEK 293) cell lines (from Emmanuel Bourinet, Montpellier, France) stably expressing CaV3.2 or CaV3.3 were cultured under 5% carbon dioxide at 37 °C in Dulbecco’s Modified Eagle Medium (DMEM) Glutamax (Gibco, Life Technologies, Carlsbad, CA, USA) supplemented with 10% (v/v) fetal bovine serum (FBS), 100 U/mL penicillin, 100 μg/mL streptomycin (Gibco, Life Technologies, Carlsbad, CA, USA), and 750 μg/mL geneticin (G418) (Gibco, Life Technologies). The Chinese Hamster Ovary (CHO) cell lines (Emmanuel Bourinet, Montpellier, France) expressing CaV3.1 were cultured under 5% carbon dioxide at 37 °C in Alpha Minimum Essential Media (MEM) Glutamax (Gibco, Life Technologies), supplemented with 10% (v/v) fetal bovine serum (FBS) and 300 μg/mL geneticin (G418) (Gibco, Life Technologies). The human neuroblastoma SH-SY5Y cells (Victor Diaz, Goettingen, Germany) were cultured under 5% carbon dioxide at 37 °C in RPMI 1640 antibiotic-free medium (Invitrogen, Carlsbad, CA, USA), supplemented with 15% FBS and 2 mM GlutaMAX™ (Invitrogen). D-PBS (Gibco, Life Technologies) was used to wash the cells, and 0.25% Trypsin-EDTA (Gibco, Life Technologies) was used to detach cells from the flask surface. They were split in a ratio of 1:5 (ideally 1000 cells/cm^2) when they reached 70–80% confluence (every 2–3 days). Transiently transfected CaV3.1 HEK293 T cells were used in FLIPR Assays. HEK 293 T cells were cultured under 5% carbon dioxide at 37 °C in DMEM supplemented with 10% (v/v) FBS. D-PBS was used to wash the cells, and 0.25% Trypsin-EDTA was used to detach cells from the flask surface. The cells were split and seeded at 6 million cells per T175 flask, to reach 70–80% confluence after 24 h. The next day, 12 μg DNA of human CaV3.1 was incubated in 900 μL serum-free DMEM with 36 μL FuGENE HD transfection reagent (Promega Corporation, Madison, WI, USA) (1:3 DNA/Fugene ratio) for 20 min, and then the mixture was added into the cell flask slowly, drop by drop. After the transfection, the cells were cultured under 5% carbon dioxide at 37 °C for 24 h and then moved to a 28 °C incubator.
HEK 293 cells stably expressing CaV3.2 or CaV3.3 were seeded into 384-well black wall clear bottom plates (Corning) at a density of 30,000 cells per well. Transiently transfected CaV3.1HEK293 T cells were seeded into 384-well black wall clear bottom plates at a density of 60,000 cells per well. Once the cells reached 90–95% confluence after 24 h, the media were removed from the wells and replaced with 20 μL of 10% calcium 4 dye (Molecular Devices, Sunnyvale, CA, USA) in HBSS-HEPES (containing 5 mM KCl, 10 mM HEPES, 140 mM NaCl, 10 mM glucose, and 0.5 mM CaCl2, pH 7.4) with 0.1% bovine serum albumin (BSA). The cells were incubated for 30 min at 37 °C in the presence of 5% carbon dioxide. Each well on the reagent plates for the first addition contained 15 μL different concentrations of compounds dissolved in HBSS-HEPES containing 0.1% BSA and <0.5% DMSO and was incubated for 20 min after loaded. Positive and negative controls contained 15 μL of HBSS-HEPES (0.1% BSA) alone. The plates were placed in the FLIPR^TETRA (Molecular Devices, Sunnyvale, CA, USA) programmed to measure maximum fluorescence intensity following a second addition of the agonist 5 mM CaCl2. The fluorescence readings were recorded and converted as described previously, and HBSS-HEPES (0.1% BSA) was used in the second addition as a negative control.

HT-29 cells = experiment: Cell viability MTT assay, HT-29; format: cell-based, human; conditions: for viability at 50 µM: HT-29, 50 µM, n = 4; for IC50: n = 3; for preferential anti-proliferative activity on HT-29: versus MCF-7, T-47D, A549
Experimental: Human breast cancer cell line MCF-7 and T-47D, lung cancer cell line A549, and colon cancer cell line HT-29 were cultured under 5% carbon dioxide at 37 °C in DMEM Glutamax (Gibco, Life Technologies) supplemented with 10% (v/v) FBS. They were split in a ratio of 1:3–1:6 (ideally 2–4 × 10,000 cells/cm^2) when they reached 70–80% confluence using 0.25% Trypsin-EDTA. For cell viability MTT assay, cells were seeded into 96-well clear bottom culture plates (Corning, Lowell, MA, USA) at a density of 5 × 10^3 cells/well and settled at 37 °C for 24 h.
Seeded cells were treated with various concentrations of compounds for desired time period (24, 48 and 72 h). After the treatments, the media were removed from each well, and replaced with 25 μL of serum-free media and 25 μL of MTT Reagent (cat. no., ab211091; Abcam, Cambridge, MA, USA). The plate was then incubated at 37 °C for 3 h, and 75 μL of MTT Solvent (cat. no., ab211091; Abcam) was added into each well after incubation. The absorbance was evaluated at 590 nm. Cell-wells treated with 0.1% DMSO were used as positive control and no cell-wells were used as background control.

[1] = FLIPR window current, n = 3, read-out: IC50 CaV3.3 (LVA CaVs)
[2] = FLIPR, one separate experiment in quadruplicate (n = 4), read-out: IC50 of representative concentration-response curve, CaV3.3 window current
[3] = Homo sapiens, HT-29, 72 h, 72 h treatment

Chain of CaV3.3 (Q9P0X4 whole entry): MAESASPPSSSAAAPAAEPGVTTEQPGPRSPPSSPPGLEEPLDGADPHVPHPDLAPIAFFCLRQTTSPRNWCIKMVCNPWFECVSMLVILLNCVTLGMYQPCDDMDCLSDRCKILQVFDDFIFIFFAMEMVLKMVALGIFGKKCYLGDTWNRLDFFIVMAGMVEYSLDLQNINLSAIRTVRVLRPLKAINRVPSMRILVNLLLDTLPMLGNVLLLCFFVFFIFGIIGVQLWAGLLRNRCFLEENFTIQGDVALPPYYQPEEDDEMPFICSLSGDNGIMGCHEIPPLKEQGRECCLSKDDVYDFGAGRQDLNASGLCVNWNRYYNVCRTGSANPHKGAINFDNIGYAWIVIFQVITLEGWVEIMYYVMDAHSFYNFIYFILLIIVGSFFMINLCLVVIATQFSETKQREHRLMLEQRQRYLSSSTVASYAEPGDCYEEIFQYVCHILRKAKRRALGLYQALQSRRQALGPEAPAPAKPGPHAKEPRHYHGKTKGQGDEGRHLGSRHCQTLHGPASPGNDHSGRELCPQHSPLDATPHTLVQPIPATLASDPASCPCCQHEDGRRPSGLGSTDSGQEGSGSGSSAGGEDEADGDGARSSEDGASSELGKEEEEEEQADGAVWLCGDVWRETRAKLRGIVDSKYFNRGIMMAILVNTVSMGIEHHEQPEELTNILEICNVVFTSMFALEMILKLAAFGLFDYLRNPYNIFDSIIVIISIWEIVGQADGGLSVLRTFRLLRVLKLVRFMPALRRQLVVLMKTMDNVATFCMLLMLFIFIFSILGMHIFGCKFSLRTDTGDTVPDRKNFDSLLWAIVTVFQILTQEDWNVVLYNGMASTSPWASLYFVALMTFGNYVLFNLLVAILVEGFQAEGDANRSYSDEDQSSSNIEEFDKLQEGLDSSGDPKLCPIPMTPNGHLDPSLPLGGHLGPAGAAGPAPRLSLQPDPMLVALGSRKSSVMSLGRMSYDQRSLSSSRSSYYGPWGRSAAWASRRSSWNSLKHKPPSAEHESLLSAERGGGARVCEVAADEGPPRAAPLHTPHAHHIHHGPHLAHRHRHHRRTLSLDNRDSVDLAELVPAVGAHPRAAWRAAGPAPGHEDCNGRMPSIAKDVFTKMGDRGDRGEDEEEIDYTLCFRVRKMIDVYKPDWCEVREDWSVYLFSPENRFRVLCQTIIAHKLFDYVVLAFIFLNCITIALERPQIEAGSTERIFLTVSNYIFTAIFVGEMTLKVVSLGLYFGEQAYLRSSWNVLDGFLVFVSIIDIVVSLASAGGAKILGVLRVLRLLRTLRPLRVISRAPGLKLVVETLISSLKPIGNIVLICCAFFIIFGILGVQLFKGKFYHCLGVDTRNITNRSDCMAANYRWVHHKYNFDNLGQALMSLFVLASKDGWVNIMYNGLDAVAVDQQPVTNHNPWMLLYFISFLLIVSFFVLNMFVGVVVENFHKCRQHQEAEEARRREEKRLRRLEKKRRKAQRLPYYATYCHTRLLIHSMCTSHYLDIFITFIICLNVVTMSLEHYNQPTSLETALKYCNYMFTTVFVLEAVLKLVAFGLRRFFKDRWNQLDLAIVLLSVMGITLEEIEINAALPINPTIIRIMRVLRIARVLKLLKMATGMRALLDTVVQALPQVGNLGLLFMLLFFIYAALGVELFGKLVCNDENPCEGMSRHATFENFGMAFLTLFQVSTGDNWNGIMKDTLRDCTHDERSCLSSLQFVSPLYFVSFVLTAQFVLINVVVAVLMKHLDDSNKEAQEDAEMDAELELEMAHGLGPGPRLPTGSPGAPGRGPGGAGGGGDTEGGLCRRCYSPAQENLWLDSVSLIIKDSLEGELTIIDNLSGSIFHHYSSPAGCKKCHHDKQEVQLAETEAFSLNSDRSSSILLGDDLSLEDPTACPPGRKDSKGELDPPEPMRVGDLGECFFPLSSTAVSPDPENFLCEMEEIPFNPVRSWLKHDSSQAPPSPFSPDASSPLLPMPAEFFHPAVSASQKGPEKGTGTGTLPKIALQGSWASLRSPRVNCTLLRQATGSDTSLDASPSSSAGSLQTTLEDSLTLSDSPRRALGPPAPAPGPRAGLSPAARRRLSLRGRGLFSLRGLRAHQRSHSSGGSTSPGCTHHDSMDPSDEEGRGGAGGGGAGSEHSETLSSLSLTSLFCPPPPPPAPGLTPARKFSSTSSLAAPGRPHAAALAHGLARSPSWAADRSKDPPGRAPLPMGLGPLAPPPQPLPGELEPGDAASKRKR

| CaV3.3 window current potency better than at CaV3.1 and CaV3.2 (CaV3.3; FLIPR) | CaV3.3 window current potency better than potency at HVA CaVs (CaV3.3; FLIPR) | IC50 (CaV3.3; [1]) | IC50 (CaV3.3; [2]) | IC50 (HT-29 cells; [3]) | IC50 (HT-29 cells; 72 h treatment) | IC50 (HT-29 cells; Homo sapiens, HT-29, 24 h, 24 h treatment) | IC50 (HT-29 cells; Homo sapiens, HT-29, 48 h, 48 h treatment) | reduced potency for CaV3.3 window current compared to DIM (CaV3.3; FLIPR) | SMILES | viability at 50 µM (HT-29 cells; Homo sapiens, 72 h treatment) | better antiproliferative effect on HT-29 cell viability than on the other three cancer cell lines (HT-29 cells; 72 h treatment) | improved potency on HT-29 cell viability compared with the other three compounds (HT-29 cells; 72 h treatment) | preferential anti-proliferative activity on HT-29 (HT-29 cells) | less active at HVA CaVs than at CaV3.2 and CaV3.3 (CaV3.3; FLIPR) | IC50 (CaV3.3; IC50 CaV3.3 (LVA CaVs), FLIPR window current, n = 3) | IC50 (CaV3.3; IC50 of representative concentration-response curve, CaV3.3 window current, FLIPR, one separate experiment in quadruplicate (n = 4)) |
| --- | --- | --- | --- | --- | --- | --- | --- | --- | --- | --- | --- | --- | --- | --- | --- | --- |
| ~ 25 fold | > 27 fold | 2.09 ± 0.43 µM | 2.77 µM | 33 µM | – | – | – | – | c1ccc2c(Cc3c[nH]c4ccccc34)c[nH]c2c1 [DIM, 3,3′-diindolylmethane, reference compound] | 25.3 ± 2.44% | – | – | – | – | – | – |
| – | – | 62.5 ± 4.1 µM | – | 1 µM | 1.2 µM | 5.9 µM | 1.6 µM | – | O=C(c1c[nH]c2cc(Br)ccc12)c1c[nH]c2cc(Br)ccc12 [IV] | 0.85 ± 0.21% | ~ 3 fold | > 10 fold | preferential anti-proliferative activity | – | – | – |
| – | – | – | – | – | – | – | – | – | O=C(c1cn(Cc2ccccc2)c2ccccc12)c1cn(Cc2ccccc2)c2ccccc12 [IX, bis(1-benzyl-1H-indol-3-yl)methanone] | – | – | – | – | > 7 fold | 6.68 ± 0.79 µM | 5.27 µM |
| – | – | 9.07 ± 0.69 µM | 8.18 µM | 20 µM | – | – | – | 4.3 fold | O=C(c1c[nH]c2ccccc12)c1c[nH]c2ccccc12 [DIM-one, 3,3′-diindolylmethanone] | 5.95 ± 0.19% | ≥ 2 fold | – | preferential anti-proliferative activity | – | – | – |
